Results on three molecules are retold here after paper PMC2365111, “Cytotoxicity of Poly(Phenolic)Sulfonates and Their Sodium Salts in L1210 Lymphoid Leukemia Cells” (Metal-Based Drugs, 1998).

For data set [1], the system named is L1210 RNA synthesis. Put plainly: Incorporation of labeled precursor into RNA. In kind it is cell-based, mouse. The conditions noted are these: 60 min, N=6. An excerpt:
CYTOTOXlCITY OF POLY(PHENOLIC)SULFONATES AND THEIR SODIUM SALTS IN L1210 LYMPHOID LEUKEMIA CELLS Fei Wang, Amy E. Warren, Cheryl R. Barnes and Iris H. Hall* Division of Medicinal Chemistry and Natural Products University of North Carolina Chapel Hill, N.C. […] Because ofthese properties it was surmised that these poly(phenolic)sulfonated compounds may have antineoplastic activity. METHODS Source of Compounds Test compounds were supplied by GeneLabs, Inc. [Redwood City, CA [Table 1]. Radioisotopes were obtained from New England Nuclear [Dupont, Boston, MA]. Substrates and co-factors were purchased om Sigma Chemical Co., [St Louis, MO]. Pentosan sulfate and other antineoplastic standards were obtained from Sigma Chemical Co. Tumor lines were obtained from American Type Culture Collection [Rockville, MD]. 147 Vol. 5, No. 3, 1998 Cytotoxicity ofSodium Poly(Phenolic)Sulfonates in L1210 Lymphoid Leukemia Cells Table 1 Structures of Poly(phenolic)sulfonate Compounds O2R" n Compound R' R" n MW # G1-2041 H OH 8 1489.46 G1-2029 H OH 6 1117.09 G1-2030 H OH 4 744.73 GI-2021 CH3 ONa 8 1777.5 G1-2057 CH3 ONa 4 888.75 GI-2158 CH3 ONa 6 1333.13 GI-2063 OCH3 ONa 8 2001.65 G1-2042 OAc ONa 8 2017.73 Cytotoxicity Poly(phenolic)sulfonates were tested for cytotoxic activity by homogenizing drug in 0.05% Tween 80/H20 to give a mg/ml stock concentration. These solutions were sterilized by passing them through an acrodisc ([…]). The following cell lines were maintained by literature techniques: murine L1210 lymphoid leukemia, P-388 lymphocytic leukemia, rat UMR 106 osteosarcoma, human Tmolt3 acute lymphoblastic T cell leukemia, HUT-8 lymphoma, HeLa-S suspended cervical carcinoma, HeLa solid cervical carcinoma, KB epidermoid nasopharynx, A431 epidermoid carcinoma, colorectal adenocarcinoma SW480, HCT-8 ileocecal adenocarcinoma, lung bronchogenic MB-9812, A549 lung carcinoma, and glioma HS683. Geran et al.'s protocol was used to assess the cytotoxicity of the compounds and standards in each cell line. Cell numbers were determined by the trypan blue exclusion technique. Solid tumor cytotoxicity was determined by Leibovitz et al. 's method utilizing crystal violeeOH and read at 562 nm (Molecular Devices). Values for cytotoxicity were expressed as EDs0 g/ml, i.e. the concentration ofthe compound inhibiting 50% ofcell growth. A value of less than 4 µg/ml was required for significant activity ofgrowth inhibition. Incorporation Studies Incorporation of labeled precursors into 3H-DNA, 3H -RNA and 3H -protein for 10 L1210 cells was obtained. The concentration response for inhibition of DNA, RNA and protein synthesis of the compounds at 25, 50 and 100 l.tM was determined for 60 min incubations. Incorporation of 14C -glycine (53.0 mCi/mmol) into purines was obtained by the method of Cadman et al.[12]. Incorporation of 4C- formate (53.0 mCi/mmol) into pyrimidines was determined by the method of Christopherson et al.[13]. […] DNA polymerase Ot activity was determined in cytoplasmic extracts isolated by Eichler et aL's method. […] Messenger-, ribosomal- and transfer-RNA polymerase enzymes were isolated with different concentrations of ammonium sulfate; individual RNA polymerase activities were determined using 3H -UTP 16,17]. Ribonucleoside reductase activity was measured using 4C -CDP with dithioerythritol. […]

Data set [2] has as its system L1210 protein synthesis. Briefly: Incorporation of labeled precursor into protein. It counts as cell-based, mouse. The conditions noted are these: 60 min, N=6. An excerpt: (§1) CYTOTOXlCITY OF POLY(PHENOLIC)SULFONATES AND THEIR SODIUM SALTS IN L1210 LYMPHOID LEUKEMIA CELLS Fei Wang, Amy E. Warren, Cheryl R. Barnes and Iris H. Hall* Division of Medicinal Chemistry and Natural Products University of North Carolina Chapel Hill, N.C. […] Because ofthese properties it was surmised that these poly(phenolic)sulfonated compounds may have antineoplastic activity. METHODS Source of Compounds Test compounds were supplied by GeneLabs, Inc. [Redwood City, CA [Table 1]. Radioisotopes were obtained from New England Nuclear [Dupont, Boston, MA]. Substrates and co-factors were purchased om Sigma Chemical Co., [St Louis, MO]. Pentosan sulfate and other antineoplastic standards were obtained from Sigma Chemical Co. Tumor lines were obtained from American Type Culture Collection [Rockville, MD]. 147 Vol. 5, No. 3, 1998 Cytotoxicity ofSodium Poly(Phenolic)Sulfonates in L1210 Lymphoid Leukemia Cells Table 1 Structures of Poly(phenolic)sulfonate Compounds O2R" n Compound R' R" n MW # G1-2041 H OH 8 1489.46 G1-2029 H OH 6 1117.09 G1-2030 H OH 4 744.73 GI-2021 CH3 ONa 8 1777.5 G1-2057 CH3 ONa 4 888.75 GI-2158 CH3 ONa 6 1333.13 GI-2063 OCH3 ONa 8 2001.65 G1-2042 OAc ONa 8 2017.73 Cytotoxicity Poly(phenolic)sulfonates were tested for cytotoxic activity by homogenizing drug in 0.05% Tween 80/H20 to give a mg/ml stock concentration. These solutions were sterilized by passing them through an acrodisc ([…]). The following cell lines were maintained by literature techniques: murine L1210 lymphoid leukemia, P-388 lymphocytic leukemia, rat UMR 106 osteosarcoma, human Tmolt3 acute lymphoblastic T cell leukemia, HUT-8 lymphoma, HeLa-S suspended cervical carcinoma, HeLa solid cervical carcinoma, KB epidermoid nasopharynx, A431 epidermoid carcinoma, colorectal adenocarcinoma SW480, HCT-8 ileocecal adenocarcinoma, lung bronchogenic MB-9812, A549 lung carcinoma, and glioma HS683. Geran et al.'s protocol was used to assess the cytotoxicity of the compounds and standards in each cell line. Cell numbers were determined by the trypan blue exclusion technique. Solid tumor cytotoxicity was determined by Leibovitz et al. 's method utilizing crystal violeeOH and read at 562 nm (Molecular Devices). Values for cytotoxicity were expressed as EDs0 g/ml, i.e. the concentration ofthe compound inhibiting 50% ofcell growth. A value of less than 4 µg/ml was required for significant activity ofgrowth inhibition. Incorporation Studies Incorporation of labeled precursors into 3H-DNA, 3H -RNA and 3H -protein for 10 L1210 cells was obtained. The concentration response for inhibition of DNA, RNA and protein synthesis of the compounds at 25, 50 and 100 l.tM was determined for 60 min incubations. Incorporation of 14C -glycine (53.0 mCi/mmol) into purines was obtained by the method of Cadman et al.[12]. Incorporation of 4C- formate (53.0 mCi/mmol) into pyrimidines was determined by the method of Christopherson et al.[13]. Enzyme Assays Inhibition of various enzyme activities was performed by first preparing the appropriate L1210 cell homogenates or subcellular fractions, then adding the drug to be tested during the enzyme assay. For the concentration response studies, inhibition of enzyme activity was determined at 25, 50 and 100 l.tM of compounds G1-2021, G1-2029, GI-2041 and G1-2063 after 60 min incubations. DNA polymerase Ot activity was determined in cytoplasmic extracts isolated by Eichler et aL's method. The DNA polymerase assay was described by Sedwick et al.[15] using 3H-TTP. Messenger-, ribosomal- and transfer-RNA polymerase enzymes were isolated with different concentrations of ammonium sulfate; individual RNA polymerase activities were determined using 3H -UTP 16,17]. Ribonucleoside reductase activity was measured using 4C -CDP with dithioerythritol. The deoxyribonucleotides 4C -dCDP were separated from the ribonucleotides by TLC on PEI plates. […]

Data set [3] concerns murine L1210 lymphoid leukemia. In kind it is cell-based, mouse. To be noted: for ED50 converted to: converted from μg/ml.
Source text: as §1

In data set [4] the target is T1, Aspartate transcarbamylase (Mus musculus, UniProt B2RQC6).
T1 construct: preparing the appropriate L1210 cell homogenates or subcellular fractions; endogenous in cells; host or cells: L1210 murine lymphoid leukemia cells, homogenate or subcellular fraction
T1 sequence (B2RQC6 whole entry): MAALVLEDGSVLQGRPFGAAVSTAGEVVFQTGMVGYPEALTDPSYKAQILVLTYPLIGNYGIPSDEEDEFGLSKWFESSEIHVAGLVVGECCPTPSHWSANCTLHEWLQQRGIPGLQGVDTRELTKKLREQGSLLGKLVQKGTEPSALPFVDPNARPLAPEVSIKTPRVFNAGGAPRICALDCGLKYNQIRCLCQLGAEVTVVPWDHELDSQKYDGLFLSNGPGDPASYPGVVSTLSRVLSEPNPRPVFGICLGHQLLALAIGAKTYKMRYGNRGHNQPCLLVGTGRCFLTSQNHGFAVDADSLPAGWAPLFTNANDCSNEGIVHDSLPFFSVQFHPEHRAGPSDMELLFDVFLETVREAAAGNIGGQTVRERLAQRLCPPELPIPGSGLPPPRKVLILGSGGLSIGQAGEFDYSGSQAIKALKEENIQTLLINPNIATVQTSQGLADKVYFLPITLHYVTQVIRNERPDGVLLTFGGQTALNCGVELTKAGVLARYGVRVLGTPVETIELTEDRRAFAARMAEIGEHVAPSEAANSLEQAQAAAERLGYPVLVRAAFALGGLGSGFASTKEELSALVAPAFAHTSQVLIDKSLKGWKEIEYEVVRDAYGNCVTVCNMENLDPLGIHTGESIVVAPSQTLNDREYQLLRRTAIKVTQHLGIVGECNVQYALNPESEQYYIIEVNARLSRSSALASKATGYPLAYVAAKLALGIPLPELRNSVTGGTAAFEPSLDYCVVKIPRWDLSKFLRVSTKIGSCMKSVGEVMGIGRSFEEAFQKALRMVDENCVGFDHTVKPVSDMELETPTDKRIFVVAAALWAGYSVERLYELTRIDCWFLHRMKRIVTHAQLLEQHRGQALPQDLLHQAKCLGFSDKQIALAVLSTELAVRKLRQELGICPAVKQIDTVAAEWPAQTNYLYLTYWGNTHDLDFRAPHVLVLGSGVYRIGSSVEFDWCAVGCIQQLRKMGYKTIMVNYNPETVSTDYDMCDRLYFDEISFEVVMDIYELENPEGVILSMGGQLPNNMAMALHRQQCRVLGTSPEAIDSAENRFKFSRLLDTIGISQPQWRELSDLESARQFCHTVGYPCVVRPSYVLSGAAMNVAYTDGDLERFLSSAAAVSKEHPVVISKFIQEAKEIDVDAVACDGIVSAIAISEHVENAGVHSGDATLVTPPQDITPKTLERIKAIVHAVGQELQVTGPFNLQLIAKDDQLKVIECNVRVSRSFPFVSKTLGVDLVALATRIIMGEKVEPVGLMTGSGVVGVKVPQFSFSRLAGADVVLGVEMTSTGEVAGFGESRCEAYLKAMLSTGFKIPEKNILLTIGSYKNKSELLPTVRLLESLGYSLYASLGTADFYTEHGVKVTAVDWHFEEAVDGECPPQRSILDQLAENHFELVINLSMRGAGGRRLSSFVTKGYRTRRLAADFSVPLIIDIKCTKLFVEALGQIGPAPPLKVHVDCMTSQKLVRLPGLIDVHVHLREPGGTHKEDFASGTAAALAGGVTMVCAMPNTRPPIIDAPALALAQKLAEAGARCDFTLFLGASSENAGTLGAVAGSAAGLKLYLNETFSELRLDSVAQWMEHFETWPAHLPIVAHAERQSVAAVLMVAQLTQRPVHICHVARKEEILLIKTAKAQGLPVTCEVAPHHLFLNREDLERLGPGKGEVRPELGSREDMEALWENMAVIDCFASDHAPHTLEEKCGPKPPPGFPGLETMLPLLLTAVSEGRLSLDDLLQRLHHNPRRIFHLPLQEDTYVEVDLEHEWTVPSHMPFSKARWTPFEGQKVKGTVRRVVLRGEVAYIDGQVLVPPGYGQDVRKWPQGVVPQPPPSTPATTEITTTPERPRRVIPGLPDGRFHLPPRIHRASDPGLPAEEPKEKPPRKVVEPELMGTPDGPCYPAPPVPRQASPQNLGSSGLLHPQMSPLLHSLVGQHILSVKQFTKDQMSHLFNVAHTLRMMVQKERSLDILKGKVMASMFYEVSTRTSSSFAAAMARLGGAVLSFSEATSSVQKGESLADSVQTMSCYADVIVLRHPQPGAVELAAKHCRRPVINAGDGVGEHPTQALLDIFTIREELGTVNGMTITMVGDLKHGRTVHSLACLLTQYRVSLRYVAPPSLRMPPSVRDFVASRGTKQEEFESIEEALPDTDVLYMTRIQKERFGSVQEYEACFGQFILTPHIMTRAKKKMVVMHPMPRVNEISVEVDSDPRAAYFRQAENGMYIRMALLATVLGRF
Briefly: Aspartate transcarbamylase activity, L1210. It counts as biochemical. To be noted: 60 min, N=6.
Source text: as §1

In the case of `O=S(=O)(O)c1cc2c(O)c(c1)Cc1cc(S(=O)(=O)O)cc(c1O)Cc1cc(S(=O)(=O)O)cc(c1O)Cc1cc(S(=O)(=O)O)cc(c1O)Cc1cc(S(=O)(=O)O)cc(c1O)Cc1cc(S(=O)(=O)O)cc(c1O)C2` [GI-2029], the RNA synthesis in data set [1] (50 μM) was 91+5% of Control. The Protein synthesis in data set [2] (50 μM) is 80+3% of Control; in data set [2] (100 μM), 71+3% of Control. The “cytotoxic activity, in words” value in data set [3] is on record as “most potent activity”. Moreover, the “ED50 converted to” value in data set [3] was determined as 1.362 µM. For the same molecule, the Aspartate transcarbamylase was 100+5% of Control in data set [4] (25 μM), 100+5% of Control in data set [4] (50 μM) and 98+6% of Control in data set [4] (100 μM).

On to `O=S(=O)(O)c1cc2c(O)c(c1)Cc1cc(S(=O)(=O)O)cc(c1O)Cc1cc(S(=O)(=O)O)cc(c1O)Cc1cc(S(=O)(=O)O)cc(c1O)Cc1cc(S(=O)(=O)O)cc(c1O)Cc1cc(S(=O)(=O)O)cc(c1O)Cc1cc(S(=O)(=O)O)cc(c1O)Cc1cc(S(=O)(=O)O)cc(c1O)C2` [GI-2041], for which, in data set [1] (25 μM), the RNA synthesis is on record as 130+5% of Control. For the same molecule, the Protein synthesis in data set [2] (50 μM) and in data set [2] (100 μM) was 70+3% of Control in each case. In data set [3], the “cytotoxic activity, in words” value was “most potent activity”. Further, the “ED50 converted to” value in data set [3] is 1.263 µM. Moreover, the Aspartate transcarbamylase in data set [4] (25 μM) is reported as 106+5% of Control; in data set [4] (100 μM) it was 94+5% of Control.

Regarding `COc1c2cc(S(=O)(=O)[O-])cc1Cc1cc(S(=O)(=O)[O-])cc(c1OC)Cc1cc(S(=O)(=O)[O-])cc(c1OC)Cc1cc(S(=O)(=O)[O-])cc(c1OC)Cc1cc(S(=O)(=O)[O-])cc(c1OC)Cc1cc(S(=O)(=O)[O-])cc(c1OC)Cc1cc(S(=O)(=O)[O-])cc(c1OC)Cc1cc(S(=O)(=O)[O-])cc(c1OC)C2.[Na+].[Na+].[Na+].[Na+].[Na+].[Na+].[Na+].[Na+]` [GI-2021], the RNA synthesis is 109+6% of Control in data set [1] (25 μM), 94+6% of Control in data set [1] (50 μM) and 78+4% of Control in data set [1] (100 μM). The Protein synthesis is on record as 80+4% of Control in data set [2] (25 μM), 64+4% of Control in data set [2] (50 μM) and 59+3% of Control in data set [2] (100 μM). For the same molecule, in data set [3], the “ED50 converted to” value amounted to 0.777 µM. For the same molecule, the Aspartate transcarbamylase in data set [4] (25 μM) is listed as 101+6% of Control; in data set [4] (50 μM), 100+5% of Control; in data set [4] (100 μM), 98+4% of Control.
